Columns and labels:
Type in all cases: biochemical
CcbF [1] = target: T1, CcbF (Streptomyces caelestis, UniProt E9JES7); test: LC-MS, in vitro cascade with Ccb5 with or without Ccb4; details: PLP-dependent; coupled with Ccb5
T1 construct: recombinant celesticetin biosynthetic protein; construct not described in main text
T1 sequence (E9JES7 1-416): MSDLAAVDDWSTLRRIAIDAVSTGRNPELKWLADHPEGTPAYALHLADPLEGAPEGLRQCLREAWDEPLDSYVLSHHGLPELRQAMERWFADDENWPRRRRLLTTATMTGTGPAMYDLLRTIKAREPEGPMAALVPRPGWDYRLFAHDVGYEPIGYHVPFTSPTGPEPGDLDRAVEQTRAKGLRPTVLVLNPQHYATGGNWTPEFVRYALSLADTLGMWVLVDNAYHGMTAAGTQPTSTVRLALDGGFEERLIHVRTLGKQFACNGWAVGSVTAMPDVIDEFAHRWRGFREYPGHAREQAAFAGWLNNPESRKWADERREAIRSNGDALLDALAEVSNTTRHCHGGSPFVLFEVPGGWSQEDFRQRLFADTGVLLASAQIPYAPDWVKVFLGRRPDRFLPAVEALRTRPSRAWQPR

CcbF [2] = target: T1, CcbF; test: LC-MS, in vitro cascade with Ccb5 and Ccb4; details: PLP-dependent; coupled with Ccb5 and Ccb4 to intermediate 45
Ccb2 = target: T2, Ccb2 (Streptomyces caelestis, UniProt E9JET8); test: LC-MS detection of acyl-AMP conjugate; details: ATP
T2 construct: recombinant, heterologously produced in and purified from E. coli; 548 residues
T2 sequence (E9JET8 1-548): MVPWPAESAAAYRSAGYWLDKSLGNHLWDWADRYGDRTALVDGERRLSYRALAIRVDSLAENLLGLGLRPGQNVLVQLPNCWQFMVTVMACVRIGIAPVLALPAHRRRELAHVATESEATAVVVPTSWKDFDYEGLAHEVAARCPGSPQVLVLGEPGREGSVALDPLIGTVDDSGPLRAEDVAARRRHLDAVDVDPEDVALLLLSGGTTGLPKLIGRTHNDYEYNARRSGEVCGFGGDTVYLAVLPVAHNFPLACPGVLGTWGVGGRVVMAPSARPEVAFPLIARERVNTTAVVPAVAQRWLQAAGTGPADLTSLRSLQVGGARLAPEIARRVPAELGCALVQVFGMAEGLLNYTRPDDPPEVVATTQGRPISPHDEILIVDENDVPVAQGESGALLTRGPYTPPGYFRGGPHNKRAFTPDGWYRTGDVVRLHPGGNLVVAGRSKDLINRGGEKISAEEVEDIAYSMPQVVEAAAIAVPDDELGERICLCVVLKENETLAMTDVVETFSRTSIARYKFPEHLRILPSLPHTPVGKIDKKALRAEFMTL

SMILES: CCC[C@H]1CN[C@H](C(=O)N[C@@H]([C@H]2O[C@H](SC[C@H](N)C(=O)O)[C@H](O)[C@@H](O)[C@H]2O)[C@@H](C)O)C1 [1a, lincomycin intermediate 1a]
- LC-MS, in vitro cascade with Ccb5 with or without Ccb4 (CcbF [1]): Lincomycin intermediates 1a and 2a processed by celesticetin biosynthetic proteins

SMILES: CCC[C@@H]1C[C@@H](C(=O)N[C@@H]([C@H]2O[C@H](SC[C@H](N)C(=O)O)[C@H](O)[C@@H](O)[C@H]2O)[C@@H](C)O)N(C)C1 [2a, lincomycin intermediate 2a]
- LC-MS, in vitro cascade with Ccb5 and Ccb4 (CcbF [2]): in vitro processing of lincomycin intermediate 2a by the celesticetin biosynthetic proteins CcbF, Ccb5, and Ccb4

SMILES: O=C(O)c1ccccc1 [compound 6, benzoic acid]
- LC-MS detection of acyl-AMP conjugate (Ccb2): We detected products
